# Laboratory results as given in PubChem BioAssay AID330 (DTP/NCI, 2004).
# Several values for one entry are separate records, joined by “and”; a condition that tells them apart may be missing. Equal entries are not always repeated. Toxic doses and inconclusive results are not listed.
# Tested on: P388 leukemia ip, CD2F1 mice, survival T/C
# Test: NCI In Vivo Anticancer Drug Screen. Data for tumor model P388 Leukemia (intraperitoneal) in CD2F1 (CDF1) mice
# Conditions: endpoint: median survival time, higher = longer survival
# Outline: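 Mice carrying the transplanted tumor received test compound or vehicle. Survival was recorded in each group, and the value is the treated-group measurement divided by that of the vehicle-treated control group.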
# [1] = dose: 50.0 mg/kg/injection, schedule: Q01DX009 (ip), vehicle: saline with Tween-80
# [2] = dose: 100.0 mg/kg/injection, schedule: Q01DX009 (ip), vehicle: saline with Tween-80
# [3] = dose: 25.0 mg/kg/injection, schedule: Q01DX009 (ip), vehicle: Klucel (hydroxypropylcellulose) (HPC)
# [4] = dose: 50.0 mg/kg/injection, schedule: Q01DX009 (ip), vehicle: Klucel (hydroxypropylcellulose) (HPC)
# [5] = dose: 100.0 mg/kg/injection, schedule: Q01DX009 (ip), vehicle: Klucel (hydroxypropylcellulose) (HPC)
# [6] = dose: 200.0 mg/kg/injection, schedule: Q01DX009 (ip), vehicle: Klucel (hydroxypropylcellulose) (HPC)
# [7] = dose: 100.0 mg/kg/injection, schedule: Q04DX003 (ip), vehicle: Klucel (hydroxypropylcellulose) (HPC)
# [8] = dose: 200.0 mg/kg/injection, schedule: Q04DX003 (ip), vehicle: Klucel (hydroxypropylcellulose) (HPC)
# [9] = dose: 50.0 mg/kg/injection, schedule: Q04DX003 (ip), vehicle: Klucel (hydroxypropylcellulose) (HPC)
# [10] = dose: 200.0 mg/kg/injection, schedule: Q01DX009 (ip), vehicle: saline with Tween-80
# [11] = dose: 400.0 mg/kg/injection, schedule: Q01DX009 (ip), vehicle: saline with Tween-80
compound,measurement,setting,value
CCCOc1ccc(C(=O)NCc2cccnc2)cc1C(=O)NCc1cccnc1,T/C,"dose: 50.0 mg/kg/injection, schedule: Q01DX005 (ip), vehicle: saline with Tween-80",100 % of control
same,T/C,"dose: 100.0 mg/kg/injection, schedule: Q01DX005 (ip), vehicle: saline with Tween-80",99 % of control
same,T/C,"dose: 200.0 mg/kg/injection, schedule: Q01DX005 (ip), vehicle: saline with Tween-80",100 % of control
N=C(N)c1ccc(/C=C/c2cc3cc(C(=N)N)ccc3o2)cc1,T/C,"dose: 12.5 mg/kg/injection, schedule: Q04DX003 (ip), vehicle: suspension in saline",112 % of control
same,T/C,"dose: 25.0 mg/kg/injection, schedule: Q04DX003 (ip), vehicle: suspension in saline",118 % of control
same,T/C,"dose: 50.0 mg/kg/injection, schedule: Q04DX003 (ip), vehicle: suspension in saline",120 % of control
same,T/C,"dose: 100.0 mg/kg/injection, schedule: Q04DX003 (ip), vehicle: suspension in saline",178 % of control
O=C(CCl)Nc1nccs1,T/C,"dose: 12.5 mg/kg/injection, schedule: Q01DX009 (ip), vehicle: saline with Tween-80",111 % of control
same,T/C,"dose: 25.0 mg/kg/injection, schedule: Q01DX009 (ip), vehicle: saline with Tween-80",112 % of control
same,T/C,[1],103 % of control
same,T/C,[2],116 % of control
O=Cc1c2cnc(c1O)CSCCCCSC2,T/C,"dose: 100.0 mg/kg/injection, schedule: Q04DX002 (ip), vehicle: saline with Tween-80",99 % of control
same,T/C,"dose: 200.0 mg/kg/injection, schedule: Q04DX002 (ip), vehicle: saline with Tween-80",96 % of control
same,T/C,"dose: 400.0 mg/kg/injection, schedule: Q04DX002 (ip), vehicle: saline with Tween-80",101 % of control
COC1/C=C\OC2(C)Oc3c(C)c(O)c4c(c3C2=O)C(=O)C(Br)=C(NC(=O)/C(C)=C\C=C/C(C)C(O)C(C)C(O)C(C)C(OC(C)=O)C1C)C4=O (stereo not given),T/C,[3],102 % of control
same,T/C,[4],97 % of control
same,T/C,[5],102 % of control
same,T/C,[6],100 % of control
C[C@@H]1CC[C@@]2(NC1)O[C@H]1C[C@H]3[C@@H]4CCC5=CC(=O)CC[C@]5(C)[C@H]4CC[C@]3(C)[C@H]1[C@@H]2C,T/C,"dose: 15.0 mg/kg/injection, schedule: Q01DX009 (ip), vehicle: saline with Tween-80",102 % of control
same,T/C,"dose: 30.0 mg/kg/injection, schedule: Q01DX009 (ip), vehicle: saline with Tween-80",100 % of control
same,T/C,"dose: 60.0 mg/kg/injection, schedule: Q01DX009 (ip), vehicle: saline with Tween-80",99 % of control
same,T/C,"dose: 120.0 mg/kg/injection, schedule: Q01DX009 (ip), vehicle: saline with Tween-80",93 % of control
N#CCN=C(N)NN,T/C,[7],105 % of control
same,T/C,[8],94 % of control
same,T/C,"dose: 400.0 mg/kg/injection, schedule: Q04DX003 (ip), vehicle: Klucel (hydroxypropylcellulose) (HPC)",108 % of control
NC(=O)c1nc2ccccn2c1[N+](=O)[O-],T/C,[4],99 % of control
same,T/C,[5],101 % of control
same,T/C,[6],108 % of control
COC(=O)c1ccccc1NC(c1ccccn1)c1ccc2cccnc2c1O (stereo not given),T/C,"dose: 50.0 mg/kg/injection, schedule: Q01DX009 (ip), vehicle: DMSO",111 % of control
same,T/C,[4],109 % of control
same,T/C,"dose: 100.0 mg/kg/injection, schedule: Q01DX009 (ip), vehicle: DMSO",116 % of control
same,T/C,[5],94 % of control
same,T/C,[6],106 % of control
same,T/C,"dose: 400.0 mg/kg/injection, schedule: Q01DX009 (ip), vehicle: Klucel (hydroxypropylcellulose) (HPC)",100 % of control
CCOc1cc2cc(CCC(=O)O)c(C)cc2cn1,T/C,"dose: 12.5 mg/kg/injection, schedule: Q01DX009 (ip), vehicle: distilled water + Tween-80",101 % of control
same,T/C,"dose: 25.0 mg/kg/injection, schedule: Q01DX009 (ip), vehicle: distilled water + Tween-80",103 % of control
same,T/C,"dose: 50.0 mg/kg/injection, schedule: Q01DX009 (ip), vehicle: distilled water + Tween-80",97 % of control
same,T/C,"dose: 100.0 mg/kg/injection, schedule: Q01DX009 (ip), vehicle: distilled water + Tween-80",98 % of control
same,T/C,"dose: 200.0 mg/kg/injection, schedule: Q01DX009 (ip), vehicle: distilled water + Tween-80",107 % of control
C[n+]1ccc(Nc2ccc(O)cc2)c2ccc(Cl)cc21,T/C,"dose: 12.5 mg/kg/injection, schedule: Q04DX003 (ip), vehicle: Klucel (hydroxypropylcellulose) (HPC)",100 % of control
same,T/C,"dose: 25.0 mg/kg/injection, schedule: Q04DX003 (ip), vehicle: Klucel (hydroxypropylcellulose) (HPC)",116 % of control and 92 % of control
same,T/C,"dose: 50.0 mg/kg/injection, schedule: Q01DX005 (ip), vehicle: saline + Tween-80 + alcohol",112 % of control
same,T/C,[9],101 % of control and 95 % of control
same,T/C,"dose: 100.0 mg/kg/injection, schedule: Q01DX005 (ip), vehicle: saline + Tween-80 + alcohol",110 % of control
same,T/C,[7],109 % of control and 112 % of control
same,T/C,"dose: 200.0 mg/kg/injection, schedule: Q01DX005 (ip), vehicle: saline + Tween-80 + alcohol",114 % of control
same,T/C,[8],120 % of control and 94 % of control
COc1ccc2ccccc2c1C(=O)CCCc1ccccc1,T/C,"dose: 25.0 mg/kg/injection, schedule: Q01DX009 (ip), vehicle: other",98 % of control
same,T/C,"dose: 50.0 mg/kg/injection, schedule: Q01DX009 (ip), vehicle: other",98 % of control
same,T/C,"dose: 100.0 mg/kg/injection, schedule: Q01DX009 (ip), vehicle: other",98 % of control
same,T/C,"dose: 200.0 mg/kg/injection, schedule: Q01DX009 (ip), vehicle: other",92 % of control
same,T/C,"dose: 400.0 mg/kg/injection, schedule: Q01DX009 (ip), vehicle: other",105 % of control
NC(=O)/N=[N+](\[O-])c1ccccc1,T/C,[9],98 % of control
same,T/C,[7],94 % of control
C/C(=N\NC1=NCCN1)c1cnn(C2=NCCN2)c1C,T/C,"dose: 60.0 mg/kg/injection, schedule: Q01DX005 (ip), vehicle: saline",116 % of control
same,T/C,"dose: 120.0 mg/kg/injection, schedule: Q01DX005 (ip), vehicle: saline",108 % of control
same,T/C,"dose: 240.0 mg/kg/injection, schedule: Q01DX005 (ip), vehicle: saline",118 % of control
Fc1cccc(-n2nc3c(c2-c2cccnc2)CCCc2ccccc2-3)c1,T/C,"dose: 100.0 mg/kg/injection, schedule: Q01DX001 (ip), vehicle: Klucel (hydroxypropylcellulose) (HPC)",106 % of control
same,T/C,"dose: 200.0 mg/kg/injection, schedule: Q01DX001 (ip), vehicle: Klucel (hydroxypropylcellulose) (HPC)",102 % of control
same,T/C,"dose: 400.0 mg/kg/injection, schedule: Q01DX001 (ip), vehicle: Klucel (hydroxypropylcellulose) (HPC)",106 % of control
C/C(=N\NC(=S)N1CCN(Cc2ccccc2)CC1)c1ccccn1,T/C,"dose: 3.13 mg/kg/injection, schedule: Q01DX005 (ip), vehicle: saline with Tween-80",118 % of control
same,T/C,"dose: 12.5 mg/kg/injection, schedule: Q01DX005 (ip), vehicle: saline with Tween-80",152 % of control
CCOC(=O)N1CCC23C=C(OC)C(=O)C=C2C1CC1=C3C(=O)C(OC)=CC1=O (stereo not given),T/C,"dose: 100.0 mg/kg/injection, schedule: Q01DX001 (ip), vehicle: saline",101 % of control
same,T/C,"dose: 200.0 mg/kg/injection, schedule: Q01DX001 (ip), vehicle: saline",97 % of control
same,T/C,"dose: 400.0 mg/kg/injection, schedule: Q01DX001 (ip), vehicle: saline",105 % of control
C=CCOc1c2c(cc3ccc(=O)oc13)CC=CO2,T/C,"dose: 12.5 mg/kg/injection, schedule: Q01DX009 (ip), vehicle: Klucel (hydroxypropylcellulose) (HPC)",95 % of control
same,T/C,[3],105 % of control
same,T/C,[4],98 % of control and 100 % of control
same,T/C,[5],112 % of control
CCOC(=O)c1cc(-c2ccc(Cl)cc2)nc2c(Cl)cc(Cl)cc12,T/C,[2],93 % of control
same,T/C,[10],94 % of control
same,T/C,[11],88 % of control
O=C(Nc1ccccc1)OCC1CC1,T/C,[1],99 % of control
same,T/C,[2],115 % of control
same,T/C,[10],96 % of control
same,T/C,[11],89 % of control
CCCCc1ccc(N2C(N)=NC(N)=NC2(C)C)cc1,T/C,"dose: 3.12 mg/kg/injection, schedule: Q01DX005 (ip), vehicle: Klucel (hydroxypropylcellulose) (HPC)",108 % of control and 106 % of control and 111 % of control
same,T/C,"dose: 6.25 mg/kg/injection, schedule: Q01DX005 (ip), vehicle: Klucel (hydroxypropylcellulose) (HPC)",110 % of control [middle of 4 runs]
same,T/C,"dose: 12.5 mg/kg/injection, schedule: Q01DX005 (ip), vehicle: Klucel (hydroxypropylcellulose) (HPC)",114 % of control [middle of 4 runs]
same,T/C,"dose: 25.0 mg/kg/injection, schedule: Q01DX005 (ip), vehicle: Klucel (hydroxypropylcellulose) (HPC)",120 % of control and 109 % of control
